# Source: PMC10165273, “Itch receptor MRGPRX4 interacts with the receptor activity–modifying proteins” (The Journal of Biological Chemistry, 2023)
# “And” between values parts separate entries of the source, which are not always exact repeats. Identical values can stand only once. Like-named read-outs stand apart in the source and are kept apart here.
# Columns and labels:
# [1] = tested on: mock-transfected HEK293T cells; test: IP1 accumulation, mock-transfected cells; assay type: cell-based, human; design: IP1 Basal / IP1 span / IP1 Emax / IP1 accumulation, dose-response (Figure 1a) / IP1 accumulation with YM (Figure 1c) / IP1 accumulation: unit not given here; conditions: for IP1 accumulation, dose-response (Figure 1a): pcDNA (mock), individual replicates; for IP1 accumulation: mock, Fig S3d-f
# Description: (§1) HEK293T cells were transfected with 1 pg/cell of MRGPRX4 DNA, and the amount of DNA was kept constant at 2 pg/cell with pcDNA3.1(+) empty vector, unless otherwise specified. Twenty four hours after transfection, IP1 assay was performed as previously described ([51]). When applicable, cells were treated with 1 μM YM254890 (YM) or different concentrations of U73122 for 1 h prior to addition of agonist or buffer. After incubation for 2 h, HTRF reagents and IP1 calibration standards were added and incubated for 2 h in the dark at room temperature. Time-resolved fluorescence signals were read on the BioTek Synergy NEO-TRF Hybrid multi-mode reader (BioTek Instruments). All data were carried out in three independent experiments with three technical replicate each.
# Validation of CALCRL constructs was assayed by cotransfecting HEK293T cells with different tagged versions of CALCRL alone or with each RAMP and with the promiscuous Gqs5 Gq chimera protein, at a respective DNA ratio of 1:1:0.5. Gqs5 is an engineered Gq protein containing the last five amino acid residues of Gs, which allows Gs-coupled GPCRs to signal through Gq downstream signaling pathways ([55]). The homogenous transfection method described above was used for all DNA mixes. CALCRL:RAMP2:Gqs5-transfected cells served as positive control for RAMP functionality.
# (§2) Data reduction, standard calibration, and transformation of HTRF data were performed as previously described ([51]). Normalized IP1 values were calculated relative to the unstimulated mock-transfected cells (set to 0%) and fully stimulated MRGPRX4 (alone if applicable) (set to 100%).
# MRGPRX4 + RAMP2 = biological target: T1, MRGPRX4 + RAMP2 (Homo sapiens, UniProt Q96LA9); test: IP1 accumulation, MRGPRX4 coexpressed with RAMP2; assay type: cell-based; design: key to response to agonist, X4:ramp2.I:2: % IP1: mock-transfected unstimulated = 0%, fully stimulated MRGPRX4 = 100%; key to IP1 Basal / response to agonist, X4:ramp2.I:0.25 / response to agonist, X4:ramp2.I:0.5 / response to agonist, X4:ramp2.I:1: % IP1; unstimulated mock = 0%, fully stimulated MRGPRX4 = 100%; conditions: for activation at 20 µM / activation at 4 µM / activation at 0.8 µM / activation at […] / activation at 0.032 µM / activation at 100 µM: 2 h, Fig S3e, read-out: IP1 accumulation; for activation at 20 µM: log [DCA] (M) -4.69897; for activation at 4 µM: log [DCA] (M) -5.39794; for activation at 0.8 µM: log [DCA] (M) -6.09691; for activation at […]: log [DCA] (M) -6.79588; for activation at 0.032 µM: log [DCA] (M) -7.49485; for activation at 100 µM: log [DCA] (M) -4; for IP1 Basal / IP1 span (Emax minus basal) / Emax: normalized per agonist; for Emax: read-out: IP1 Emax
# T1 construct: expressed in transfected cells; host or cells: HEK293T
# Description: as §1
# For RAMP DNA titration assay, HEK293T cells were cotransfected with a constant amount of 1 pg/cell of FLAG-MRGPRX4-GFP10-1D4 to which a serial dilution of 1, 0.75, 0.5, 0.25, or 0 pg/cell of each HA-RAMP-OLLAS was added. For a homogenous transfection of MRGPRX4, a master mix of MRGPRX4 DNA was made prior to addition of the RAMP DNA. […]
# as §2
# [2] = MRGPRX4 + RAMP2 0.25 pg (Fig. S3)
# [3] = MRGPRX4 + RAMP2 0.5 pg (Fig. S3)
# T1 sequence (Q96LA9 whole entry): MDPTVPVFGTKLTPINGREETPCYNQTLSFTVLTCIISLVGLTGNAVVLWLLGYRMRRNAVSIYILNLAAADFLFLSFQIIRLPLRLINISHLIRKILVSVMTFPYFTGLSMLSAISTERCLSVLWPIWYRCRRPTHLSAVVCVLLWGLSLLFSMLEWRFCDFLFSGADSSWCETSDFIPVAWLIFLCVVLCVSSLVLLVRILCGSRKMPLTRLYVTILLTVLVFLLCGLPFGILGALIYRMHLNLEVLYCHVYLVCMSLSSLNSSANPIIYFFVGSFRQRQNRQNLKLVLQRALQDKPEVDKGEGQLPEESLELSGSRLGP
structure (smiles),measurement,setting,value
"C[C@H](CCC(=O)O)[C@H]1CC[C@H]2[C@@H]3CC[C@@H]4C[C@H](O)CC[C@]4(C)[C@H]3C[C@H](O)[C@]12C [DCA, deoxycholic acid]",IP1 span,"[1]; Mock, MRGPRX4 construct comparison (Fig. S4B,C-F)",-2.094
same,"IP1 accumulation, dose-response (Figure 1a)",[1]; log [agonist] (M) -4,0.2103 and 0.3669 and 0.293 and -0.07837 and 0.1649 and -0.08879 and 0.2113 and -0.2385 and -0.6593 and -0.4375 and -0.5166 and -0.9554
same,"IP1 accumulation, dose-response (Figure 1a)",[1]; log [agonist] (M) -4.95424,0.553 and 0.2642 and 0.3806 and 0.3517 and 0.05455 and 0.247 and 0.3525 and -0.3352 and -0.4263 and -0.5038 and 0.5136 and -0.7508
same,"IP1 accumulation, dose-response (Figure 1a)",[1]; log [agonist] (M) -5.90849,0.1227 and 0.5487 and 0.6873 and 0.2386 and 0.02519 and 0.3705 and 0.5521 and -0.1483 and -0.4243 and -0.2808 and 0.06832 and -0.3071
same,"IP1 accumulation, dose-response (Figure 1a)",[1]; log [agonist] (M) -6.86273,0.3536 and 0.9227 and 0.8938 and 0.5392 and 0.2564 and 0.9514 and 0.9872 and 0.3929 and 0.5666 and 0.2655 and 0.4716 and 0.3728
same,IP1 accumulation,[1]; log [DCA] (M) -4,1.182 and 0.9551 and 1.627
same,IP1 accumulation,[1]; log [DCA] (M) -5.39794,0.3631 and 0.268 and 0.3023
same,activation at 20 µM,MRGPRX4 + RAMP2; ratio MRGPRX4:RAMP2 1:0.25,59.5%
same,activation at 4 µM,MRGPRX4 + RAMP2; ratio MRGPRX4:RAMP2 1:0.25,39%
same,activation at 0.8 µM,MRGPRX4 + RAMP2; ratio MRGPRX4:RAMP2 1:0.25,28.2%
same,activation at […],MRGPRX4 + RAMP2; ratio MRGPRX4:RAMP2 1:0.25,28.2%
same,activation at 0.032 µM,MRGPRX4 + RAMP2; ratio MRGPRX4:RAMP2 1:0.25,29.4%
same,activation at 20 µM,MRGPRX4 + RAMP2; ratio MRGPRX4:RAMP2 1:0.5,51.9%
same,activation at 4 µM,MRGPRX4 + RAMP2; ratio MRGPRX4:RAMP2 1:0.5,28.9%
same,activation at 0.8 µM,MRGPRX4 + RAMP2; ratio MRGPRX4:RAMP2 1:0.5,21.9%
same,activation at […],MRGPRX4 + RAMP2; ratio MRGPRX4:RAMP2 1:0.5,21.5%
same,activation at 100 µM,MRGPRX4 + RAMP2; ratio MRGPRX4:RAMP2 1:1,56.6%
same,activation at 20 µM,MRGPRX4 + RAMP2; ratio MRGPRX4:RAMP2 1:1,35%
same,activation at 0.8 µM,MRGPRX4 + RAMP2; ratio MRGPRX4:RAMP2 1:1,13.8%
same,activation at […],MRGPRX4 + RAMP2; ratio MRGPRX4:RAMP2 1:1,13.1%
same,activation at 0.032 µM,MRGPRX4 + RAMP2; ratio MRGPRX4:RAMP2 1:1,13.2%
same,activation at 100 µM,MRGPRX4 + RAMP2; ratio MRGPRX4:RAMP2 1:2,20.6%
same,activation at 20 µM,MRGPRX4 + RAMP2; ratio MRGPRX4:RAMP2 1:2,10.3%
same,activation at 4 µM,MRGPRX4 + RAMP2; ratio MRGPRX4:RAMP2 1:2,5.86%
same,activation at […],MRGPRX4 + RAMP2; ratio MRGPRX4:RAMP2 1:2,6.3%
same,activation at 0.032 µM,MRGPRX4 + RAMP2; ratio MRGPRX4:RAMP2 1:2,5.62%
same,"response to agonist, X4:ramp2.I:0.25","MRGPRX4 + RAMP2; Figure 4c-f, agonist 100µM, X4:ramp2 1:0.25, MRGPRX4 = 100",82.2333 and 78.588
same,"response to agonist, X4:ramp2.I:0.5","MRGPRX4 + RAMP2; Figure 4c-f, agonist 100µM, X4:ramp2 1:0.5, MRGPRX4 = 100",59.4831 and 67.5869
same,"response to agonist, X4:ramp2.I:1","MRGPRX4 + RAMP2; Figure 4c-f, agonist 100µM, X4:ramp2 1:1, MRGPRX4 = 100",42.5729 and 40.2351
same,"response to agonist, X4:ramp2.I:2","MRGPRX4 + RAMP2; Figure 4c-f, agonist 100µM, X4:ramp2 1:2, MRGPRX4 = 100",19.2213 and 20.608
same,IP1 Basal,MRGPRX4 + RAMP2; [2],22.40
same,IP1 span (Emax minus basal),MRGPRX4 + RAMP2; [2],84.8%
same,Emax,MRGPRX4 + RAMP2; [2],107%
same,IP1 Basal,MRGPRX4 + RAMP2; [3],17.50
same,IP1 span (Emax minus basal),MRGPRX4 + RAMP2; [3],77%
same,Emax,MRGPRX4 + RAMP2; [3],94.5%
same,IP1 Basal,MRGPRX4 + RAMP2; MRGPRX4 + RAMP2 1 pg (Fig. S3),11.18
same,IP1 span (Emax minus basal),MRGPRX4 + RAMP2; MRGPRX4 + RAMP2 1 pg (Fig. S3),45%
same,Emax,MRGPRX4 + RAMP2; MRGPRX4 + RAMP2 1 pg (Fig. S3),56.2%
same,IP1 Basal,MRGPRX4 + RAMP2; MRGPRX4 + RAMP2 2 pg (Fig. S3),5.412
same,IP1 span (Emax minus basal),MRGPRX4 + RAMP2; MRGPRX4 + RAMP2 2 pg (Fig. S3),24.4%
same,Emax,MRGPRX4 + RAMP2; MRGPRX4 + RAMP2 2 pg (Fig. S3),29.9%
